No end group written: not given here.
Key:
[1] = system: patients with osteoporosis; details: two to three years of administration; cited from earlier work
[2] = biological target: T1, PTH/PTHrP receptors in human renal cortical membranes (RCM) (Homo sapiens, UniProt Q03431); experiment: Competition binding of 125I-(Tyr36)hPTHrP-(1-36)NH2 to human renal cortical membranes
T1 sequence (Q03431 27-593): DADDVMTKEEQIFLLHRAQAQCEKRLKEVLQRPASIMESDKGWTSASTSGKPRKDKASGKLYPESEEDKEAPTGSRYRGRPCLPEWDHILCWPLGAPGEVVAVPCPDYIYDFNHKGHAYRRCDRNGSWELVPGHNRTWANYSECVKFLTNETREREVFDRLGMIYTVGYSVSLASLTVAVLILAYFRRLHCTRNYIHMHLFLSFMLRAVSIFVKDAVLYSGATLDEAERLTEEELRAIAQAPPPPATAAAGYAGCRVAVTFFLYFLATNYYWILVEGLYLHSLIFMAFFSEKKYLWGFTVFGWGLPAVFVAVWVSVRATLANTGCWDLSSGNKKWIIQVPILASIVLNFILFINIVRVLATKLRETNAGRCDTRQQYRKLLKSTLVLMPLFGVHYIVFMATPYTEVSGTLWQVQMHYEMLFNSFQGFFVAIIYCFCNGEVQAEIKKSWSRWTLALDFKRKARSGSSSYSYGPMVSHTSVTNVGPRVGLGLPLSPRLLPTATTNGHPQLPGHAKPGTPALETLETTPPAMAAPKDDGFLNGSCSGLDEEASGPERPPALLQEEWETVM
Method: All steps were performed in the presence of the following protease inhibitors: aprotinin [10 Kallikrein inhibitor units (KIU/ml], pepstatin (5 μg/ml), leupeptin (45 μg/ml), and phenylmethanesulfanylfluoride (10 μg/ml). Normal human kidney cortex was from four separate nephrectomy specimens removed for localized transitional cell carcinoma, renal cell carcinoma, or benign cysts. Renal function in all individuals was normal as assessed by serum creatinine and pyelography. Membranes were pooled, aliquoted, and stored at −70° C. for later use.
Human RCM were added to a final concentration of 90 μg/ml. […] The incubation time of 30 min was used for subsequent equilibrium binding competition studies.
(§1) Statistical differences were assessed by paired and unpaired two-tailed Student's t test.

[3] = system: adenylate cyclase in SaOS-2 membranes; experiment: Adenylate cyclase assay in SaOS-2 cell membranes; format: biochemical, human; details: 30° C., 30 min
Method: Therefore, dose response curves for each peptide were generated at 30° C. for 10 min in human kidney and 30° C. for 30 min in SaOS-2 membranes. As with the intact cell adenylate cyclase assays, kidney and bone cell membrane adenlyate cyclase assays were performed under binding assay conditions. Results are expresses as percentage of maximal cAMP stimulation in order to compare peptide dose responses from different experiments.
as §1

[4] = system: adenylate cyclase in SaOS-2 intact cells; experiment: Adenylate cyclase assay in SaOS-2 intact cells; format: cell-based, human; details: 15° C., 60 min
Method: Adenylate cyclase-stimulating activity was examined in confluent SAOS-2 cells as previously described for ROS 17/2.8 cells (Merendino et al., Science 231:388-390, (1986)), with the following modification. The intact cell assay was conducted at 15° C., the same conditions employed for binding to intact SaOS-2 cells (vide supra). […] Dose response curves for each peptide were thus generated using 60 min incubations at 15° C. under binding assay conditions.
as §1

[5] = biological target: T2, PTH/PTHrP receptors on SaOS-2 intact cells (Homo sapiens, UniProt Q03431); experiment: Competition binding of 125I-(Tyr36)hPTHrP-(1-36)NH2 to SaOS-2 intact cells; details: SaOS-2 cells
T2 sequence (Q03431 27-593): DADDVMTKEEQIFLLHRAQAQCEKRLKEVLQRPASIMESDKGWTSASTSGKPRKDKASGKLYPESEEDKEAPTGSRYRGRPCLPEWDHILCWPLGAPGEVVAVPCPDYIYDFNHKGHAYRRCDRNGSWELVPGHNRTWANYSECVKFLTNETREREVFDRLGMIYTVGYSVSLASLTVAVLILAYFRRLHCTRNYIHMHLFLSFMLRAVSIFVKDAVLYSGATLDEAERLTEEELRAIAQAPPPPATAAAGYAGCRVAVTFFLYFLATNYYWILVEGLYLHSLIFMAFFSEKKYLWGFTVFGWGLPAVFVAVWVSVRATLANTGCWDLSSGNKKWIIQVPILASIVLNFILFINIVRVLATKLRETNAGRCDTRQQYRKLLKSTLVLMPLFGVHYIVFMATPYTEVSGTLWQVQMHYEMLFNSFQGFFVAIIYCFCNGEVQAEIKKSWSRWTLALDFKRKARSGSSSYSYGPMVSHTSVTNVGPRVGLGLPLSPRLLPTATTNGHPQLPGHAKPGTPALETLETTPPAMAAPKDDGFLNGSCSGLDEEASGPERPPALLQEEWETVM
Method: The medium was changed every other day, and studies were performed at 5-7 days post confluence. Cell numbers were determined using a Coulter counter.
Binding studies were conducted at 15° C. in the presence of chymostatin (100 μg/ml) and bacitracin (200 μg/ml). […] The incubation time of 150 min was therefore used for competitive binding studies.

## [Ca+2] [calcium]
[1]
  increase in lumbar spine bone mineral density: ~2%

## vitamin D
[1]
  increase in lumbar spine bone mineral density: ~2%

## SVSEMQLMHNLGEHRHTVERQDWLQMKLQDVHSA-NH2 [cPTH-(1-34)NH2, Chicken PTH-(1-34)amide]
[2]; human RCM, 30° C., 30 min, read-out: Binding (IC50) Kidney membranes
  IC50: 21.5 ± 8.5 nM

## CCCC[C@H](NC(=O)[C@H](CO)NC(=O)[C@H](CC(N)=O)NC(=O)[C@H](CC(C)C)NC(=O)[C@H](Cc1c[nH]cn1)NC(=O)[C@H](CCCCN)NC(=O)CNC(=O)[C@H](CC(C)C)NC(=O)[C@H](CC(N)=O)NC(=O)[C@H](Cc1c[nH]cn1)NC(=O)[C@H](CCCC)NC(=O)[C@H](CC(C)C)NC(=O)[C@H](CCC(N)=O)NC(=O)[C@@H](NC(=O)[C@H](CCC(=O)O)NC(=O)[C@H](CO)NC(=O)[C@@H](NC(=O)[C@@H](N)CO)C(C)C)[C@@H](C)CC)C(=O)N[C@@H](CCC(=O)O)C(=O)N[C@@H](CCCNC(=N)N)C(=O)N[C@H](C(=O)N[C@@H](CCC(=O)O)C(=O)N[C@@H](Cc1c[nH]c2ccccc12)C(=O)N[C@@H](CC(C)C)C(=O)N[C@@H](CCCNC(=N)N)C(=O)N[C@@H](CCCCN)C(=O)N[C@@H](CCCCN)C(=O)N[C@@H](CC(C)C)C(=O)N[C@@H](CCC(N)=O)C(=O)N[C@@H](CC(=O)O)C(=O)N[C@H](C(=O)N[C@@H](Cc1c[nH]cn1)C(=O)N[C@@H](CC(N)=O)C(=O)N[C@@H](Cc1ccc(O)cc1)C(=O)O)C(C)C)C(C)C [(Nle^8,18Tyr^34)hPTH-(1-34), (Nle^8,18, Tyr^34)hPTH-(1-34)]
[3]
  EC50: 1.9 ± 0.4 nM
[4]
  EC50: 2.3 ± 0.4 nM

## hPTHrP-(1-74)
[2]; RCM
  affinity less than that of hPTHrP-(1-36): 25 fold
[5]
  affinity less than that of hPTHrP-(1-36): 9 fold
[4]
  EC50: 9.2 ± 1 nM

B1: bPTH-(1-84) (protein)
chain: AVSEIQFMHNLGKHLSSMERVEWLRKKLQDVHNFVALGASIAYRDGSSQRPRKKEDNVLVESHQKSLGEADKADVDVLIKAKPQ
notes: Bovine full-length parathyroid hormone from the National Hormone and Pituitary Program
[2]; RCM and SaOS-2 membranes
  relative affinity less than the amino-terminal analogs: approximately 10 fold

Source: US7384912B2, “Treatment of bone disorders with skeletal anabolic drugs” (Osteotrophin, LLC, priority 2002, dated 2008)
